From patent publication US9884012B2, “Use of PEDF-derived polypeptides for promoting muscle or tendon regeneration or arteriogenesis” (MacKay Memorial Hospital, priority 2012, dated 2018)
“And” between values parts separate entries of the source, which are not always exact repeats. Identical values can stand only once.

How the values were obtained:
tendon stem cells (TSCs) = experiment: TSCs proliferation assay (BrdU labeling) in vitro; assay type: cell-based, New Zealand White rabbits; details: TSCs passage 4; 50 nM peptide, 5% FBS, 24 hours; BrdU pulse-labeling
Method: New Zealand White rabbits (6-8 months old, 3.0-4.0 kg) were used in this study. Achilles tendons were removed from the rabbits by cutting through their bony attachments. The tendon sheath was stripped away and the core portion of the tendons was minced into small fragments. Each 100 mg of fragment was then digested in a solution containing 3 mg/mL of type I collagenase and 4 mg/mL of dispase in 1 ml Dulbecco's Modified Eagle Medium (DMEM-high glucose) at 37° C. for 2 hours. The resultant cell suspension was centrifuged at 1,000 rpm for 15 minutes to obtain a cell pellet which was then resuspended in a growth medium consisting of DMEM supplemented with 10% heat inactivated fetal bovine serum (FBS), 100 μM 2-mercaptoethanol, and 100 U/ml penicillin and 100 μg/ml streptomycin. For passage, near-confluent cells were harvested with 0.25% trypsin and then 1×10^5 subcultured cells were further cultured in medium.
The TSCs at passage 4 were seeded at gelatin-coated slide in a 6-well plate at a density of 2×10^5 cells per well and cultured in growth medium (DMEM+10% FBS) for 24 hours before being replaced by a basal growth medium with 5% FBS only (control group) or with 5% FBS plus an additional 50 nM of PEDF-derived peptide (i.e., 29-mer, 24-mer, 20-mer, 18-mer, Mo 29-mer, or Mo 20-mer) for 24 hours. For BrdU labeling assay, BrdU (final concentration, 10 μM) was added to the culture for 4 hours. After fixing with 4% paraformaldehyde, cells were exposed to cold methanol for 2 minutes, and then treated with 1 N HCl at RT for 1 hour before performing immunofluorescence. The phenotype of passage 4 TSC was determined by immunocytochemistry of nucleostemin and type I collagen. Almost all of expanded TSCs were nucleostemin and type I collagen-double positive cells.
It has been reported that during the tendon healing process, tendon stem cells (TSCs) would proliferate and differentiate into tenocytes. To investigate whether present PEDF peptides would induce the proliferation of TSCs in vitro, tendons stem cells were isolated and cultured as described in the “Materials and Methods” section. The purity of TSCs was confirmed by a TSC marker, nucleostemin, as well as the expression of type I collagen by TSCs; together, these analyses indicated a TSC purity of near 100% (data not shown). The proliferation of TSCs was confirmed by BrdU pulse-labeling for 2 hours. Quantitative analysis of the level of BrdU-positive cells was performed as described above, and the results were summarized in Table 8.

ischemic hindlimbs = experiment: hindlimb ischemia model, laser Doppler perfusion imaging of limb blood perfusion; assay type: in vivo, C57BL/6 wild-type mice; details: for Ischemic/Non-ischemic Perfusion Ratio (%) 7 days: 7 days after surgery, 50 μl sustained-release alginate gel formulation, 10 μM peptide (Bolus: bolus formulation of 29-mer), single intramuscular injection to gracilis muscle; for Ischemic/Non-ischemic Perfusion Ratio (%) 21 days: 21 days after surgery; for Ischemic/Non-ischemic Perfusion Ratio (%) 21 days / Ischemic/Non-ischemic Perfusion Ratio (%) 28 days: sustained-release formulation (Bolus: bolus 29-mer), single intramuscular injection; for Ischemic/Non-ischemic Perfusion Ratio (%) 28 days: 28 days (four weeks) after surgery; for Ischemic/Non-ischemic Perfusion Ratio (%) Pre OP: before surgery (baseline); for Ischemic/Non-ischemic Perfusion Ratio (%) Pre OP / Ischemic/Non-ischemic Perfusion Ratio (%) Post OP: LDPI; for Ischemic/Non-ischemic Perfusion Ratio (%) Post OP: immediately after surgery
Method: 6-week-old female C57BL/6 wild-type mice were anesthetized by an intraperitoneal injection of a mixture of zoletil (6 mg/kg) and xylazine (3 mg/kg). Hair was removed from the hindquarter with a depilating cream. To establish hindlimb ischemia, unilateral external iliac and femoral arteries and veins were ligated, cut, and excised. After surgery, the mice were randomly assigned to several experimental groups (n=6, each group) and treated as follows. In the blank control group, the mice were treated with 50 μl of blank alginate gel, whereas in the bolus control group, the mice received the bolus formulation containing 29-mer. In the PEDF peptide/alginate gel treatment groups, the mice received 50 μl of the sustained-release formulation, which comprised either 29-mer, 24-mer, or 20-mer. Additionally, in a PEDF 18-mer control group, mice were treated with a sustained-release formulation containing a PEDF 18-mer peptide. Treatments were applied by way of a single intramuscular injection to the gracilis muscle immediately after femoral artery and vein excision operation. The incision was closed after the wound was irrigated with sterile saline.
A laser Doppler perfusion imaging (LDPI) analyzer (Moor Instruments, USA) was used to quantify hindlimb blood perfusion before surgery (pre OP), immediately after surgery (post OP), and over time after surgery. To minimize vasoconstriction by anesthetic heat loss, animals were kept on a heating plate at 37° C. for 5 min before measurement. Representative LDPI images illustrating the blood perfusion of ischemic hindlimbs over a time period of 4 weeks were provided in FIG. 2 in which dark blue color represents low blood flow. Blood perfusion is expressed as LDPI index representing the ratio of operated (ischemic) versus non-operated (non-ischemic) limb blood flow of the same mouse, and the results were summarized in FIG. 3 and Table 1 (n 6).

[1] = system: tendon stem cells (TSCs) in injured tendon; experiment: tendo Achilles injury model, in vivo TSC proliferation (nucleostemin staining); parameters: species or system Sprague-Dawley rats; details: injured tendon specimens of Example 4.1; sustained-release formulation (Bolus: bolus 29-mer)
Method: De-paraffinized tissue sections or 4% paraformaldehyde fixed rabbit tendon stem cells (TSCs) were blocked with 10% goat serum and 5% BSA for 1 hour. Double staining was done using primary antibodies against α-SMA (1:100 dilution), IB4 (5 μg/ml), Pax7 (1:100 dilution), nucleostemin (1:100 dilution) and type I collagen 1A1 (1:50) at 37° C. for 2 hours, followed by incubation with the appropriate rhodamine- or FITC-conjugated donkey IgG for 1 hour at RT. Nuclei were located by counterstaining with Hoechst 33258 for 7 minutes. Images were captured using a Zeiss epifluorescence microscope with a CCD camera.
To investigate the effects of the present PEDF peptides on tendon regeneration, a rat model with tendon injury was established as follows. Adult 10-week-old male Sprague-Dawley rats (total n=50; initial body weight=312±11 g) were anesthetized by an intraperitoneal injection of a xylazine (10 mg/kg). Then, the left tendo Achilles injury was created by full-thickness insertion of an 18-gauge needle through tendo Achilles 1 cm proximal to its insertion into the calcaneum. This created a horizontal (transaction) wound which was flanked by intact tendon tissue on both sides to prevent the retraction of severed ends.
The rats were randomly assigned (n=10/group) to five experimental groups and treated as follows. In the blank control group, the mice were treated with 150 μl of blank alginate gel. For the bolus control group, 150 μl of the bolus formulation (29-mer) was administered. […]
Specimens obtained from animals in different experimental groups of Example 4.1 were stained for nucleostemin (green) to investigate whether in vivo TSC proliferation would be promoted by the present sustained-release formulation during the tendon wound healing process. In quantitative analysis, ten randomly selected microscopic fields in each experimental group were photographed, and the percentage of nucleostemin-positive cells per total cells (counterstained by Hoechst 33258; blue) was calculated.

| Sequence | BrdU Labeling Index (%) (tendon stem cells (TSCs)) | Ischemic/Non-ischemic Perfusion Ratio (%) 7 days (ischemic hindlimbs) [%] | Ischemic/Non-ischemic Perfusion Ratio (%) 21 days (ischemic hindlimbs) [%] | Ischemic/Non-ischemic Perfusion Ratio (%) 28 days (ischemic hindlimbs) | Ischemic/Non-ischemic Perfusion Ratio (%) Pre OP (ischemic hindlimbs) [%] | Ischemic/Non-ischemic Perfusion Ratio (%) Post OP (ischemic hindlimbs) [%] | Nucleostemin Labeling Index (%) [1] [%] |
| --- | --- | --- | --- | --- | --- | --- | --- |
| SLGAEQRTESIIHRALYYDL [20-mer, synthetic peptide corresponding to residues 93-112 of human PEDF] | 33.2 ± 6.6 | 43.3 ± 7.2 | 75.5 ± 5.2 | 93% and 92.7 ± 3.0 % | 98.0 ± 7.8 | 4.6 ± 0.64 | 15.0 ± 3.9 |
| SLGAEQRTESIIHRALYYDLISSP [24-mer, synthetic peptide corresponding to residues 93-116 of human PEDF] | 29.0 ± 4.6 | 53.1 ± 0.37 | 86.1 ± 5.9 | 92% and 91.8 ± 5.5 % | 91.5 ± 5.6 | 8.0 ± 0.03 | 16.8 ± 4.2 |
| SLGAEQRTESIIHRALYYDLISSPDIHGT [29-mer, synthetic peptide corresponding to residues 93-121 of human PEDF] | 31.8 ± 3.6 | 44.8 ± 2.0 | 101 ± 7.0 | 105% and 105 ± 4.8 % | 108.2 ± 8.8 | 7.0 ± 3.1 | 16.4 ± 2.9 |
